From patent US9211310B2, “Use of a Chinese medicine composition in preparing medicaments for treating secondary prevention of myocardial infarction” (TASLY PHARMACEUTICAL GROUP CO., LTD, priority 2010, dated 2015)

Test system: patients after acute myocardial infarction
Test: TCM symptom score, total and single (chest pain, chest tightness, short breath, fatigue, palpitation, spontaneous perspiration, pale complexion), same clinical trial
Type: in vivo, human
Parameters: total score of TCM symptom, Mean / total score of TCM symptom, Min / total score of TCM symptom, Max / total score of TCM symptom, Md / change of total score of TCM symptom, Mean / change of total score of TCM symptom, Max / change of total score of TCM symptom, Md: scale not given here
Settings: PP
Source text: 3508 patients who were in accordance with the diagnostic standards of AMI for 28 days to 2 years and differentiated as Qi deficiency and blood stagnation syndrome by TCM were studied. 0.5 g Chinese medicine composition prepared by the method of EXAMPLE 1 (Coded as QSYQ) was administrated half an hour after meal, 3 times per day.
They included the overall survival time, angina pectoris score, TCM symptom score and life quality score, where angina pectoris score, TCM symptom score and life quality score were evaluated at randomization, in 1st, 3rd, 6th, 9th, 12th month after treatment and 18th month after follow-up.
The analysis method referred to the angina pectoris score.

[1] = 9 months after treatment-baseline
[2] = 12 months after treatment-baseline

CC(=O)Oc1ccccc1C(=O)O [Control group, aspirine]
change of spontaneous perspiration −2, percent of patients [1]: (0.43%)
change of spontaneous perspiration −3, number of patients [1]: 0
change of spontaneous perspiration −3, percent of patients [1]: (0.00%)
change of total score of TCM symptom, Max [1]: 15.00
change of total score of TCM symptom, Md [1]: −4.00
change of total score of TCM symptom, Mean [1]: −5.04
change of short breath 0, number of patients (12 months after treatment): 743
distribution of total score of TCM symptom: Medium, number of patients (12 months after treatment): 229
distribution of total score of TCM symptom: Medium, percentage of patients (12 months after treatment): (16.33%)
distribution of total score of TCM symptom: Mild, number of patients (12 months after treatment): 1172
distribution of total score of TCM symptom: Mild, percentage of patients (12 months after treatment): (83.59%)
distribution of total score of TCM symptom: Severe, number of patients (12 months after treatment): 1
distribution of total score of TCM symptom: Severe, percentage of patients (12 months after treatment): (0.07%)
fatigue score 0, % of patients (12 months after treatment): (39.06%)
fatigue score 0, number of patients (12 months after treatment): 548
fatigue score 2, % of patients (12 months after treatment): (58.16%)
fatigue score 2, number of patients (12 months after treatment): 816
fatigue score 4, % of patients (12 months after treatment): (2.64%)
fatigue score 4, number of patients (12 months after treatment): 37
fatigue score 6, % of patients (12 months after treatment): (0.14%)
fatigue score 6, number of patients (12 months after treatment): 2
pale complexion score 0, number of patients (12 months after treatment): 870
pale complexion score 0, percent of patients (12 months after treatment): (62.01%)
pale complexion score 1, number of patients (12 months after treatment): 463
pale complexion score 1, percent of patients (12 months after treatment): (33.00%)
pale complexion score 2, number of patients (12 months after treatment): 63
pale complexion score 2, percent of patients (12 months after treatment): (4.49%)
pale complexion score 3, number of patients (12 months after treatment): 7
pale complexion score 3, percent of patients (12 months after treatment): (0.50%)
palpitation score 0, number of patients (12 months after treatment): 576
palpitation score 0, percent of patients (12 months after treatment): (41.05%)
palpitation score 2, number of patients (12 months after treatment): 745
palpitation score 2, percent of patients (12 months after treatment): (53.10%)
palpitation score 4, number of patients (12 months after treatment): 78
palpitation score 4, percent of patients (12 months after treatment): (5.56%)
palpitation score 6, number of patients (12 months after treatment): 4
palpitation score 6, percent of patients (12 months after treatment): (0.29%)
short breath score 0, % of patients (12 months after treatment): (33.36%)
short breath score 0, number of patients (12 months after treatment): 468
short breath score 3, % of patients (12 months after treatment): (58.45%)
short breath score 3, number of patients (12 months after treatment): 820
short breath score 6, % of patients (12 months after treatment): (8.20%)
short breath score 6, number of patients (12 months after treatment): 115
short breath score 9, % of patients (12 months after treatment): (0.00%)
short breath score 9, number of patients (12 months after treatment): 0
spontaneous perspiration score 0, number of patients (12 months after treatment): 730
spontaneous perspiration score 0, percent of patients (12 months after treatment): (52.03%)
spontaneous perspiration score 1, number of patients (12 months after treatment): 640
spontaneous perspiration score 1, percent of patients (12 months after treatment): (45.62%)
spontaneous perspiration score 2, number of patients (12 months after treatment): 31
spontaneous perspiration score 2, percent of patients (12 months after treatment): (2.21%)
spontaneous perspiration score 3, number of patients (12 months after treatment): 2
spontaneous perspiration score 3, percent of patients (12 months after treatment): (0.14%)
total score of TCM symptom, Max (12 months after treatment): 28.00
total score of TCM symptom, Md (12 months after treatment): 7.00
total score of TCM symptom, Mean (12 months after treatment): 7.81
total score of TCM symptom, Min (12 months after treatment): 0.00
change of fatigue 0, % of patients [2]: (44.10%)
change of fatigue 0, number of patients [2]: 617
change of fatigue 2, % of patients [2]: (38.03%)
change of fatigue 2, number of patients [2]: 532
change of fatigue 4, % of patients [2]: (10.51%)
change of fatigue 4, number of patients [2]: 147
change of fatigue 6, % of patients [2]: (1.64%)
change of fatigue 6, number of patients [2]: 23
change of fatigue −2, % of patients [2]: (5.43%)
change of fatigue −2, number of patients [2]: 76
change of fatigue −4, % of patients [2]: (0.29%)
change of fatigue −4, number of patients [2]: 4
change of pale complexion 0, number of patients [2]: 967
change of pale complexion 0, percent of patients [2]: (69.22%)
change of pale complexion 1, number of patients [2]: 393
change of pale complexion 1, percent of patients [2]: (28.13%)
change of pale complexion −1, number of patients [2]: 37
change of pale complexion −1, percent of patients [2]: (2.65%)
change of palpitation 0, number of patients [2]: 679
change of palpitation 0, percent of patients [2]: (48.53%)
change of palpitation 1, number of patients [2]: 536
change of palpitation 1, percent of patients [2]: (38.31%)
change of palpitation 2, number of patients [2]: 97
change of palpitation 2, percent of patients [2]: (6.93%)
change of palpitation 3, number of patients [2]: 6
change of palpitation 3, percent of patients [2]: (0.43%)
change of palpitation −1, number of patients [2]: 78
change of palpitation −1, percent of patients [2]: (5.58%)
change of palpitation −2, number of patients [2]: 3
change of palpitation −2, percent of patients [2]: (0.21%)
change of spontaneous perspiration 0, number of patients [2]: 647
change of spontaneous perspiration 0, percent of patients [2]: (46.28%)
change of spontaneous perspiration 1, number of patients [2]: 483
change of spontaneous perspiration 1, percent of patients [2]: (34.55%)
change of spontaneous perspiration 2, number of patients [2]: 128
change of spontaneous perspiration 2, percent of patients [2]: (9.16%)
change of spontaneous perspiration 3, number of patients [2]: 29
change of spontaneous perspiration 3, percent of patients [2]: (2.07%)
change of spontaneous perspiration −1, number of patients [2]: 103
change of spontaneous perspiration −1, percent of patients [2]: (7.37%)
change of spontaneous perspiration −2, number of patients [2]: 8
change of spontaneous perspiration −2, percent of patients [2]: (0.57%)
change of total score of TCM symptom, Max [2]: 18.00
change of total score of TCM symptom, Md [2]: −5.00
change of total score of TCM symptom, Mean [2]: −6.09
change of total score of TCM symptom, Min [2]: −28.00
distribution of total score of TCM symptom: Medium, number of patients (Baseline): 717
distribution of total score of TCM symptom: Medium, percentage of patients (Baseline): (48.78%)
distribution of total score of TCM symptom: Mild, number of patients (Baseline): 701
distribution of total score of TCM symptom: Mild, percentage of patients (Baseline): (47.69%)
distribution of total score of TCM symptom: Severe, number of patients (Baseline): 52
distribution of total score of TCM symptom: Severe, percentage of patients (Baseline): (3.54%)
fatigue score 0, % of patients (Baseline): (18.22%)
fatigue score 0, number of patients (Baseline): 268
fatigue score 2, % of patients (Baseline): (60.50%)
fatigue score 2, number of patients (Baseline): 890
fatigue score 4, % of patients (Baseline): (17.74%)
fatigue score 4, number of patients (Baseline): 261
fatigue score 6, % of patients (Baseline): (3.54%)
fatigue score 6, number of patients (Baseline): 52
pale complexion score 0, number of patients (Baseline): 494
pale complexion score 0, percent of patients (Baseline): (33.61%)
pale complexion score 1, number of patients (Baseline): 626
pale complexion score 1, percent of patients (Baseline): (42.59%)
pale complexion score 2, number of patients (Baseline): 293
pale complexion score 2, percent of patients (Baseline): (19.93%)
pale complexion score 3, number of patients (Baseline): 57
